Data taken from patent EP0325279A1, “Dehydrocholecalciferol derivatives” (F. HOFFMANN-LA ROCHE AG, priority 1988, dated 1989).
Several values for one entry are separate records, joined by “and”; a condition that tells them apart may be missing. Identical values can stand only once.

Columns and labels:
Type in all cases: cell-based
[1] = system: gezüchteten menschlichen Keratinocyten; experiment: Morphological differentiation of cultured human keratinocytes (cell counts by cell type)
[2] = system: menschlicher promyelocytischer Tumorzellen HL-60; experiment: Antiproliferative (AP) effect on HL-60 cells; conditions: for IC50: Homo sapiens, concentration that reduces the cell number by 50%, read-out: ID50 (the source's name)
From the text: (§1) Zum Nachweis der Aktivität der Verbindungen der Formel I als Mittel zur Behandlung von neoplastischen Krankheiten wurden die antiproliferativen (AP) und die Differenzierung induzierenden Effekte (DI) der Verbindungen A bis F sowie die Anzahl menschlicher promyelocytischer Tumorzellen HL-60 ermittelt. In Tabelle 6 ist der AP Effekt als prozentuale Reduktion der Anzahl Zellen und als Konzentration ID₅₀, die die Zellenanzahl um 50% reduziert, angegeben. Der DI Effekt ist angegeben als Prozentsatz der differenzierten Zellen und als Konzentration ED₅₀ der Verbindungen, die eine 50%ige Differenzierung der Zellen bewirkt.

[3] = system: menschlicher promyelocytischer Tumorzellen HL-60; experiment: Differentiation-inducing (DI) effect on HL-60 cells; conditions: for EC50: Homo sapiens, concentration that causes 50% differentiation of the cells, read-out: ED50 (the source's name)
From the text: as §1

[4] = system: menschlichen Keratinocyten; experiment: Number of human keratinocytes and cornified squamous cells formed in presence of compound
From the text: Die Aktivität der Verbindungen der Formel I als Mittel für die Behandlung von hyperproliferativen Hautkrankheiten kann auch durch Ermittlung der Anzahl von menschlichen Keratinocyten, von verhornten Plattenepithelzellen und von Plattenepithel-Karzinomzellenlinien (SCC-115), die sich in Gegenwart der besagten Verbindungen bilden.
Die Resultate sind in den Tabellen 4 und 5 angegeben: Tabelle 4

[5] = Konzentration 0.1 (head prints x10 M)
[6] = Konzentration 1 (head prints x10 M)
[7] = Konzentration 10 (head prints x10 M)
[8] = Konzentration 100 (head prints x10 M)
[9] = Konzentration 1000 (head prints x10 M)
[10] = Konzentration 0.01 (head prints x10 M)

| Compound | Anzahl Zellen (x10⁴): Basalzellen ([1]; Dosis 10⁻¹⁰ M) | Anzahl Zellen (x10⁴): Gesamtanzahl ([1]; Dosis 10⁻¹⁰ M) | Anzahl Zellen (x10⁴): Plattenepithelzellen ([1]; Dosis 10⁻¹⁰ M) | Anzahl Zellen (x10⁴): verhornte Plattenepithelzellen ([1]; Dosis 10⁻¹⁰ M) [x10⁴] | Anzahl Zellen (x10⁴): Basalzellen ([1]; Dosis 10⁻⁶ M) | Anzahl Zellen (x10⁴): Gesamtanzahl ([1]; Dosis 10⁻⁶ M) | Anzahl Zellen (x10⁴): Plattenepithelzellen ([1]; Dosis 10⁻⁶ M) | Anzahl Zellen (x10⁴): Basalzellen ([1]; Dosis 10⁻⁸ M) | Anzahl Zellen (x10⁴): Gesamtanzahl ([1]; Dosis 10⁻⁸ M) | Anzahl Zellen (x10⁴): Plattenepithelzellen ([1]; Dosis 10⁻⁸ M) | IC50 [2] [nM] | % Reduktion der Anzahl Zellen [2, 5] [%] | % Reduktion der Anzahl Zellen [2, 6] [%] | % Reduktion der Anzahl Zellen [2, 7] [%] | % Reduktion der Anzahl Zellen [2, 8] [%] | EC50 [3] [nM] | Differenzierte Zellen (%) [3, 5] [%] | Differenzierte Zellen (%) [3, 6] [%] | Differenzierte Zellen (%) [3, 7] [%] | Differenzierte Zellen (%) [3, 8] [%] | further results |
| --- | --- | --- | --- | --- | --- | --- | --- | --- | --- | --- | --- | --- | --- | --- | --- | --- | --- | --- | --- | --- | --- |
| C=C1CC[C@H](O)C/C1=C/C=C1\CCC[C@]2(C)C([C@H](C)C/C=C/C(C)(C)O)=CC[C@@H]12 [Verbindung D, 25-Hydroxy-16,23E-bisdehydrocholecalciferol] | 93±6 x10⁴ | 113±7 x10⁴ | 20±1 x10⁴ | 104±10 | 68±1 x10⁴ | 94±3 x10⁴ | 26±2 x10⁴ | 86±3 x10⁴ | 111±7 x10⁴ | 25±2 x10⁴ | 1500 | 12 | 12 | 17 | 46 | 2000 | 1 | 2 | 17 | 31 | Anzahl Zellen (x10⁴): verhornte Plattenepithelzellen ([1]; Dosis 10⁻⁶ M): 144±7 x10⁴; Anzahl Zellen (x10⁴): verhornte Plattenepithelzellen ([1]; Dosis 10⁻⁸ M): 128±5 x10⁴; % Reduktion der Anzahl Zellen [2, 9]: 95%; Differenzierte Zellen (%) [3, 9]: 97% |
| C=C1/C(=C\C=C2/CCC[C@]3(C)C([C@H](C)C/C=C/C(C)(C)O)=CC[C@@H]23)C[C@@H](O)C[C@@H]1O [Verbindung C, 1,25-Dihydroxy-16,23E-bisdehydrocholecalciferol] | 92±2 x10⁴ | 117±4 x10⁴ | 25±2 x10⁴ | 103±6 | 54±6 x10⁴ | 80±7 x10⁴ | 26±1 x10⁴ | 80±2 x10⁴ | 108±3 x10⁴ | 28±1 x10⁴ | 3 | 20 | 81 | 85 | 86 | 3 | 19 | 92 | 97 | 99 | Anzahl Zellen (x10⁴): verhornte Plattenepithelzellen ([1]; Dosis 10⁻⁶ M): 153±1 x10⁴; Anzahl Zellen (x10⁴): verhornte Plattenepithelzellen ([1]; Dosis 10⁻⁸ M): 128±3 x10⁴; % Reduktion der Anzahl Zellen [2, 10]: 18%; Differenzierte Zellen (%) [3, 10]: 3% |
| C=C1CC[C@H](O)C/C1=C/C=C1\CCC[C@]2(C)C([C@H](C)CC#CC(C)(C)O)=CC[C@@H]12 [Verbindung F, 25-Hydroxy-16-dehydro-23-didehydrocholecalciferol] | 81±3 x10⁴ | 103±5 x10⁴ | 22±2 x10⁴ | 103±4 | 55±2 x10⁴ | 84±4 x10⁴ | 29±1 x10⁴ | 67±2 x10⁴ | 97±3 x10⁴ | 29±1 x10⁴ | 700 | 13 | 10 | 8 | 58 | 700 | 4 | 12 | 21 | 55 | Anzahl Zellen (x10⁴): verhornte Plattenepithelzellen ([1]; Dosis 10⁻⁶ M): 137±7 x10⁴; Anzahl Zellen (x10⁴): verhornte Plattenepithelzellen ([1]; Dosis 10⁻⁸ M): 121±6 x10⁴; % Reduktion der Anzahl Zellen [2, 9]: 95%; Differenzierte Zellen (%) [3, 9]: 91% |
| C=C1/C(=C\C=C2/CCC[C@]3(C)[C@@H]([C@H](C)CCCC(C)(C)O)CC[C@@H]23)C[C@@H](O)C[C@@H]1O [Verbindung X, 1,25-Dihydroxychalecalciferol, reference compound] | 103±2 x10⁴ and 95±8 x10⁴ and 86±6 x10⁴ | 122±4 x10⁴ and 116±9 x10⁴ and 106±7 x10⁴ | 19±2 x10⁴ and 21±1 x10⁴ and 18±1 x10⁴ |  | 64±6 x10⁴ and 57±4 x10⁴ and 51±5 x10⁴ | 95±7 x10⁴ and 83±5 x10⁴ and 73±7 x10⁴ | 31±1 x10⁴ and 26±1 x10⁴ and 22±2 x10⁴ | 89±2 x10⁴ and 75±8 x10⁴ and 61±5 x10⁴ | 112±6 x10⁴ and 101±10 x10⁴ and 84±8 x10⁴ | 23±4 x10⁴ and 26±2 x10⁴ and 23±3 x10⁴ | 20 | 5 | 16 | 66 | 84 | 20 | 11 | 19 | 68 | 98 | % Reduktion der Anzahl Zellen [2, 10]: 6%; Differenzierte Zellen (%) [3, 10]: 3% |
| C=C1/C(=C\C=C2/CCC[C@]3(C)C([C@H](C)CCCC(C)(C)O)=CC[C@@H]23)C[C@@H](O)C[C@@H]1O [Verbindung A, 1,25-Dihydroxy-16-dehydrocholecalciferol] | 115±7 x10⁴ | 132±8 x10⁴ | 17±1 x10⁴ | 27±2 | 71±5 x10⁴ | 101±7 x10⁴ | 30±2 x10⁴ | 106±8 x10⁴ | 128±10 x10⁴ | 22±2 x10⁴ | 2 | 33 | 84 | 85 | 85 | 2 | 16 | 92 | 97 | 98 | Anzahl Zellen (x10⁴): verhornte Plattenepithelzellen ([1]; Dosis 10⁻⁶ M): 39±2 x10⁴; Anzahl Zellen (x10⁴): verhornte Plattenepithelzellen ([1]; Dosis 10⁻⁸ M): 33±2 x10⁴; Anzahl Keratinocten (x10⁴) ([4]; Dosis 10⁻¹² M): 114.91±10.95 x10⁴; Anzahl verhornte Plattenepithelzellen (x10²) ([4]; Dosis 10⁻¹² M): 1662.2± 420.1 x10²; Anzahl Keratinocten (x10⁴) ([4]; Dosis 10⁻¹⁰ M): 130.37±24.32 x10⁴; Anzahl verhornte Plattenepithelzellen (x10²) ([4]; Dosis 10⁻¹⁰ M): 3973.8± 126.99 x10²; Anzahl Keratinocten (x10⁴) ([4]; Dosis 10⁻⁶ M): 109.22±15.87 x10⁴; Anzahl verhornte Plattenepithelzellen (x10²) ([4]; Dosis 10⁻⁶ M): 8323.5± 157.6 x10²; Anzahl Keratinocten (x10⁴) ([4]; Dosis 10⁻⁸ M): 120.67±16.87 x10⁴; Anzahl verhornte Plattenepithelzellen (x10²) ([4]; Dosis 10⁻⁸ M): 7235.2± 55.5 x10²; % Reduktion der Anzahl Zellen [2, 10]: 10%; Differenzierte Zellen (%) [3, 10]: 3% |
| C=C1CC[C@H](O)C/C1=C/C=C1\CCC[C@]2(C)C([C@H](C)CCCC(C)(C)O)=CC[C@@H]12 [Verbindung B, 25-Hydroxy-16-dehydrocholecalciferol] | 15±5 x10⁴ | 133±6 x10⁴ | 18±1 x10⁴ | 25±1 | 74±3 x10⁴ | 104±4 x10⁴ | 30±1 x10⁴ | 109±2 x10⁴ | 131±4 x10⁴ | 22±2 x10⁴ | 350 | 10 | 8 | 14 | 82 | 320 | 5 | 4 | 6 | 93 | Anzahl Zellen (x10⁴): verhornte Plattenepithelzellen ([1]; Dosis 10⁻⁶ M): 33±1 x10⁴; Anzahl Zellen (x10⁴): verhornte Plattenepithelzellen ([1]; Dosis 10⁻⁸ M): 29±2 x10⁴; % Reduktion der Anzahl Zellen [2, 9]: 95%; Differenzierte Zellen (%) [3, 9]: 95% |
